Data on two substances can be found in patent publication US20170000849A1, “CD300A RECEPTORS AS VIRUS ENTRY COFACTORS” (INSTITUT NATIONAL DE LA SANTE ET DE LA RECHERCHE MEDICALE …, priority 2013, published 2017).

Test [1] deals with binding of TIM3-Fc to DV2 JAM particles. Briefly: ELISA: binding of TIM3-Fc to DV2 JAM coated particles in the presence of Annexin V. Further details: species or system human. As to conditions: ANX5 0.31-20 μg/ml, TIM3-Fc 2 μg/ml.
Method: (§1) Bar chart representing the amount of TIM3-Fc, CD300a-Fc or DV-SIGN-Fc bound to DV2 JAM particles in the presence of different concentration of Annexin V, a PtdSer specific ligand. DV2 JAM particles were coated in 96 well plates and incubated for one hour at +4° C. with various concentrations of the PtdSer specific ligand Annexin V before the addition of human IgG1-Fc, TIM3-Fc, CD300a-Fc or DV-SIGN-Fc (2 μg/ml). Bound Fcs were detected with a HRP conjugated rabbit pAb to human IgG (1/1000) and OPD substrate. Data are represented as mean±SD of three independent experiments performed in duplicates.
To identify whether CD300a recognized these phospholipids at the surface of virions, DV2 JAM coated particles were challenged with serially diluted concentrations of the PtdSer specific ligand AnnexinV (ANX5) (0.31-20 μg/ml, FIG. 14) or the PtdEth specific ligand Duramycin (0.625-5 μM, FIG. 15) before the addition of Fc coupled molecules.
In test [2] the test system is binding of DC-SIGN-Fc to DV2 JAM particles. Further details: species or system human. Particulars: DV2 JAM coated particles; ANX5 0.31-20 μg/ml, Duramycin 0.625-5 μM, EDTA 1.25 to 25 mM.
Method: All ELISA were performed on Maxisorp 96 well plates (Nunc). PBS diluted DV particles (1.106 FIU) were coated overnight at 4° C. […] Wells were saturated with TBS 1×, 10 mM CaCl2, 2% BSA for 2 h at 37° C. All dilutions were in TBS 1×, 10 mM CaCl2, washes in TBS 1×, 10 mM CaCl2, 0.5% Tween 20, and incubations, 1 h at 4° C. Annexin V or Duramycin were added previously to Fc chimera while EDTA was mixed with Fcs′. All Fcs' were 2 μg/ml. Bound Fcs' were detected with a pAb rabbit anti-human IgG-HRP and OPD substrate.
The target of test [3] is binding of CD300a-Fc to DV2 JAM particles (Homo sapiens, UniProt Q9UGN4). Briefly: ELISA: binding of CD300a-Fc to DV2 JAM coated particles in the presence of inhibitor. Particulars: for inhibition of the binding of CD300a to DV: ANX5 0.31-20 μg/ml or Duramycin 0.625-5 μM added before CD300a-Fc (2 μg/ml); for effect on CD300a-Fc binding to DV (in words): rat mAb 0.625 to 20 μg/ml, EDTA 1.25 to 25 mM mixed with Fc, ANX5, Duramycin added before Fc.
Sequence of binding of CD300a-Fc to DV2 JAM particles (Q9UGN4 with tags, fused parts or gaps limits assumed): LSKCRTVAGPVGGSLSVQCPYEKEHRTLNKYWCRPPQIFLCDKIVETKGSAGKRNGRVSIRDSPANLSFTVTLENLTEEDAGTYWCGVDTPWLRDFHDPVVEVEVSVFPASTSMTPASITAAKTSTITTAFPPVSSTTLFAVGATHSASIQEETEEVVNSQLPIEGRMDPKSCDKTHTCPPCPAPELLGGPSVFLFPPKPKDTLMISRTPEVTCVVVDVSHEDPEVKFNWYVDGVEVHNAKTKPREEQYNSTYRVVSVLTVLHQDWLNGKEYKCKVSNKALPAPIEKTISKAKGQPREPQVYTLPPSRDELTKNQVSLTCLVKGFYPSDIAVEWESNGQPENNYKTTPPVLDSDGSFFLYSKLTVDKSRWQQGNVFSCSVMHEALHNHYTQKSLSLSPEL
Method: Graph representing the amount of CD300a-Fc bound by DV2 JAM coated particles in the presence of anti-CD300Ab. Serial dilutions of a rat mAb to CD300a or its IgG2a isotype were mixed with CD300a-Fc before incubation with DV2 JAM coated particles. Residual bound Fc was detected with a HRP conjugated rabbit pAb to human IgG (1/1000) and OPD substrat. Data are represented as mean±SD of three independent experiments performed in duplicates.
as §1
Bar chart representing the amount of CD300a-Fc or DV-SIGN-Fc bound to DV2 JAM particles in the presence of different concentration of Duramycin. DV2 JAM particles were coated in 96 well plates and incubated for one hour at +4° C. with various concentrations of the PtdEth specific ligand Duramycin before the addition of human IgG1-Fc, TIM3-Fc, CD300a-Fc or DV-SIGN-Fc (2 μg/ml). Bound Fcs were detected with a HRP conjugated rabbit pAb to human IgG (1/1000) and OPD substrate. Data are represented as mean±SD of three independent experiments performed in duplicates.
Bar chart representing the amount of CD300a-Fc bound by DV2 JAM coated particles in the presence of EDTA. Two fold serial dilutions of EDTA (1-25 mM) were mixed with CD300a-Fc before incubation with DV2 JAM coated particles. Bound Fcs were detected with a HRP conjugated rabbit pAb to human IgG (1/1000) and OPD substrate. Data shown are mean±SD of duplicates wells and representative of three independent experiments.
All ELISA were performed on Maxisorp 96 well plates (Nunc). PBS diluted DV particles (1.106 FIU) were coated overnight at 4° C. Coated 3-sn-phosphatidyl-Choline, -Ethanolamine or -Serine (10 μg/well, Sigma, Lyon, France) were diluted in ethanol and the wells air dried. Wells were saturated with TBS 1×, 10 mM CaCl2, 2% BSA for 2 h at 37° C. All dilutions were in TBS 1×, 10 mM CaCl2, washes in TBS 1×, 10 mM CaCl2, 0.5% Tween 20, and incubations, 1 h at 4° C. Annexin V or Duramycin were added previously to Fc chimera while EDTA was mixed with Fcs′. All Fcs' were 2 μg/ml. Bound Fcs' were detected with a pAb rabbit anti-human IgG-HRP and OPD substrate.

For Annexin V [ANX5], in test [1], the “binding of TIM3-Fc to DV blocked” value is recorded as “up to 60%”. In addition, the “effect on DV/DC-SIGN-Fc binding (in words)” value in test [2] is “left unchanged”. Further, in test [3], the “inhibition of the binding of CD300a to DV” value is reported as “up to 35%” and the “effect on CD300a-Fc binding to DV (in words)” value was “inhibited in a concentration dependent manner”.
In the case of Duramycin [reference compound], the “effect on DV/DC-SIGN-Fc binding (in words)” value in test [2] is listed as “left unchanged”. In addition, in test [3], the “inhibition of the binding of CD300a to DV” value is “up to 98%” and the “effect on CD300a-Fc binding to DV (in words)” value is “inhibited in a concentration dependent manner”.
